Drawing on ChEMBL document CHEMBL1128913, “Synthesis and in vitro cytotoxicity of cryptophycins and related analogs” (Bioorg Med Chem Lett, 1996), this text covers IC50 for eight molecules.

Values after ≈ are worked out from the molar mass of the structure shown.

What all share (assay type): functional, cell-based
The test system of one assay is DA-3 cell line. Put plainly: Cytotoxic activity against DA-3 mouse mammary adenocarcinoma cells.
Assay [1] relates to KB. Put plainly: Cytotoxic activity against KB human nasopharyngeal carcinoma cells.
A further assay deals with HT-29. The assay is described as follows: Cytotoxic activity against HT-29 human colon adenocarcinoma cells.
In assay [2] the test system is KB. Put plainly: Cytotoxic activity against KBV vinblastine resistant KB cells. The settings on record: Homo sapiens.
The next assay has as its system B16-F10. Put plainly: Cytotoxic activity against B16F10 mouse melanoma cells.
The test system of assay [3] is KB. The assay is described as follows: Cytotoxic activity against Human nasopharyngeal KB cell line.

As for `COc1ccc(C[C@H]2NC(=O)/C=C/C[C@@H](C(C#Cc3ccccc3)OS(C)(=O)=O)OC(=O)[C@H](CC(C)C)OC(=O)CCNC2=O)cc1` (some centres not stated), the IC50 in the assay on DA-3 cell line, with KB [1], in the assay with HT-29, with KB [2] and in the assay with B16-F10 was above 10 nM each time.
On to `COc1ccc(C[C@H]2NC(=O)/C=C/C[C@@H](C(O)C#Cc3ccccc3)OC(=O)[C@H](CC(C)C)OC(=O)CCNC2=O)cc1` (some centres not stated), for which the IC50 with DA-3 cell line, in the assay with KB [1], in the assay on HT-29, with KB [2] and in the assay with B16-F10 was above 10 nM each time.
Consider `COc1ccc(C[C@H]2NC(=O)/C=C/C[C@@H](C(Br)C#Cc3ccccc3)OC(=O)[C@H](CC(C)C)OC(=O)[C@@H](C)CNC2=O)cc1` (some centres not stated), for which the 50% inhibitory concentration (IC50) in the assay with DA-3 cell line, in the assay with KB [1], with HT-29, with KB [2] and in the assay with B16-F10 was above 10 nM each time.
For the molecule `COc1ccc(C[C@H]2NC(=O)/C=C/C[C@@H](C(Br)C#Cc3ccccc3)OC(=O)[C@H](CC(C)C)OC(=O)CCNC2=O)cc1` (some centres not stated), the concentration for half-maximal inhibition (IC50) in the assay with DA-3 cell line, in the assay on KB [1], in the assay on HT-29, in the assay with KB [2] and in the assay on B16-F10 was above 10 nM throughout.
On to `COc1ccc(C[C@H]2NC(=O)/C=C/C[C@@H]([C@](C)(O)C#Cc3ccccc3)OC(=O)[C@H](CC(C)C)OC(=O)CCNC2=O)cc1`, for which the IC50 in the assay with DA-3 cell line, with KB [1], in the assay on HT-29, in the assay with KB [2] and in the assay with B16-F10 was above 10 nM throughout.
Consider `COc1ccc(C[C@H]2NC(=O)/C=C/C[C@@H]([C@](C)(O)/C=C\c3ccccc3)OC(=O)[C@H](CC(C)C)OC(=O)CCNC2=O)cc1`, for which the IC50 in the assay on DA-3 cell line, in the assay with KB [1], in the assay with HT-29, in the assay on KB [2] and in the assay with B16-F10 was above 10 nM in each case.
On to `COc1ccc(C[C@H]2NC(=O)/C=C/C[C@@H]([C@H](C)/C=C/c3ccccc3)OC(=O)[C@H](CC(C)C)OC(=O)[C@H](C)CNC2=O)cc1Cl` [CRYPTOPHYCIN 3], for which the IC50 in the assay on DA-3 cell line came to 1 nM; in the assay on KB [3], 3 ng/mL (≈ 4.69 nM); with KB [1], 2 nM; with HT-29, 1 nM; in the assay on KB [2], 5 nM; in the assay on B16-F10 it was 2 nM.
For `COc1ccc(C[C@H]2NC(=O)/C=C/C[C@@H]([C@H](C)[C@H]3O[C@@H]3c3ccccc3)OC(=O)[C@H](CC(C)C)OC(=O)[C@H](C)CNC2=O)cc1Cl` [CRYPTOPHYCIN A], the half-inhibitory concentration (IC50) in the assay with DA-3 cell line worked out at 0.002 nM; in the assay on KB [3], 0.005 ng/mL (≈ 0.00763 nM); in the assay with KB [1] it was 0.004 nM; in the assay with HT-29 it was 0.002 nM; in the assay with KB [2], 0.035 nM; in the assay with B16-F10, 0.03 nM.

What is called IC50 is the midpoint of a concentration-inhibition curve.
